In PubChem BioAssay AID1963450 (Molecular Pharmacology Branch, DTP, NCI, 2024):
Values joined by “and” are separate entries in the source; they are usually repeats but may differ in a detail not shown here. Identical values can stand only once. Values belong to the compound of their own block, whether it stands above or below them.

Tested on: 556581-035-R-J1-PDC complex spheroid growth
Assay: Anticancer human tumor 556581-035-R-J1-PDC patient-derived ovarian carcinoma cell line growth inhibition [Asc]
Settings: for viability, T/C: stronger effect = lower value
Outline: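 Spheroid model: tumor line + HUVEC + hMSC. Single agents and combinations; top conc. at/near clinical Cmax (10 microM if undetermined), half-log dilutions. DMSO stocks at 800-fold test concentration.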
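Also: spheroids exposed to agents for 7 days before viability read.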

- IC50 (curve of first compound, second compound 0.1 µM): > 300 nM
- IC50 (curve of first compound, second compound 0.316 µM): > 300 nM
- IC50 (curve of first compound, second compound 1 µM): > 300 nM
- IC50 (curve of first compound, second compound 3.16 µM): 148 nM
- IC50 (curve of first compound, second compound 10 µM): 87.6 nM
SMILES: NC(=O)C(=Cn1cnc(-c2cc(C(F)(F)F)cc(C(F)(F)F)c2)n1)c1cncnc1 + Cc1c(S(C)(=O)=O)c(-c2cc(F)cc(N3CCN(c4ccc(NS(=O)(=O)c5ccc(NC(CCN6CCC(C(=O)OCCCP(=O)(O)O)CC6)CSc6ccccc6)c(S(=O)(=O)C(F)(F)F)c5)cc4)CC3)c2)c(-c2ccc(Cl)cc2)n1C(C)C
- viability, T/C (second compound 0.1 µM, first compound 0.000949 µM): 70.9%
- viability, T/C (second compound 0.1 µM, first compound 0.003 µM): 72.3%
- viability, T/C (second compound 0.1 µM, first compound 0.00949 µM): 75%
- viability, T/C (second compound 0.1 µM, first compound 0.03 µM): 57.8%
- viability, T/C (second compound 0.1 µM, first compound 0.0949 µM): 75.9%
- viability, T/C (second compound 0.1 µM, first compound 0.3 µM): 66.1%
- viability, T/C (second compound 0.316 µM, first compound 0.000949 µM): 81.2%
- viability, T/C (second compound 0.316 µM, first compound 0.003 µM): 75.6%
- viability, T/C (second compound 0.316 µM, first compound 0.00949 µM): 80.3%
- viability, T/C (second compound 0.316 µM, first compound 0.03 µM): 69.5%
- viability, T/C (second compound 0.316 µM, first compound 0.0949 µM): 66.3%
- viability, T/C (second compound 0.316 µM, first compound 0.3 µM): 52.9%
- viability, T/C (second compound 1 µM, first compound 0.000949 µM): 78%
- viability, T/C (second compound 1 µM, first compound 0.003 µM): 63.5%
- viability, T/C (second compound 1 µM, first compound 0.00949 µM): 63.8%
- viability, T/C (second compound 1 µM, first compound 0.03 µM): 68.5%
- viability, T/C (second compound 1 µM, first compound 0.0949 µM): 52.9%
- viability, T/C (second compound 1 µM, first compound 0.3 µM): 59.5%
- viability, T/C (second compound 3.16 µM, first compound 0.000949 µM): 57.2%
- viability, T/C (second compound 3.16 µM, first compound 0.003 µM): 61.2%
- viability, T/C (second compound 3.16 µM, first compound 0.00949 µM): 70.3%
- viability, T/C (second compound 3.16 µM, first compound 0.03 µM): 63.9%
- viability, T/C (second compound 3.16 µM, first compound 0.0949 µM): 59.6%
- viability, T/C (second compound 3.16 µM, first compound 0.3 µM): 34%
- viability, T/C (second compound 10 µM, first compound 0.000949 µM): 73%
- viability, T/C (second compound 10 µM, first compound 0.003 µM): 63.9%
- viability, T/C (second compound 10 µM, first compound 0.00949 µM): 61%
- viability, T/C (second compound 10 µM, first compound 0.03 µM): 55%
- viability, T/C (second compound 10 µM, first compound 0.0949 µM): 49.2%
- viability, T/C (second compound 10 µM, first compound 0.3 µM): 45.6%

- IC50 (compound alone, run of 10/11/2022): > 3000 nM
- IC50 (curve of compound): > 3000 nM
SMILES: CCN1C(C(=O)NC23CCC(C(=O)O)(CC2)CC3)C(c2cccc(Cl)c2F)C2(C(=O)Nc3cc(Cl)ccc32)C12CCCCC2 (configuration not stated)
- viability, T/C (compound 0.00949 µM): 95.4% and 108%

- IC50 (curve of compound): > 100 nM
SMILES: Cn1ncnc1[C@H]1c2n[nH]c(=O)c3cc(F)cc(c23)N[C@@H]1c1ccc(F)cc1
- viability, T/C (compound 0.000316 µM): 100% and 86.8% and 84.9%
- viability, T/C (compound 0.001 µM): 111% and 95.3% and 97%
- viability, T/C (compound 0.00316 µM): 97.7% and 107% and 74.9%
- viability, T/C (compound 0.01 µM): 106% and 99.9% and 76.3%
- viability, T/C (compound 0.0316 µM): 105% and 86.6% and 94.5%
- viability, T/C (compound 0.1 µM): 99.7% and 85.6% and 94.2%

- IC50 (curve of compound): > 300 nM
SMILES: NC(=O)C(=Cn1cnc(-c2cc(C(F)(F)F)cc(C(F)(F)F)c2)n1)c1cncnc1
- viability, T/C (compound 0.000949 µM): 96.8% and 78.4% and 91%
- viability, T/C (compound 0.003 µM): 79.9% and 83.7% and 94.9%
- viability, T/C (compound 0.00949 µM): 97.6% and 97.4% and 87%
- viability, T/C (compound 0.03 µM): 88.8% and 107% and 101%
- viability, T/C (compound 0.0949 µM): 97.1% and 55.4% and 87.1%
- viability, T/C (compound 0.3 µM): 95.9% and 77.4% and 102%
